From US20250339443A1, “METHOD FOR TREATING OR PREVENTING CALCIUM RELEASE-ACTIVATED CALCIUM CHANNEL OR DISCOIDIN DOMAIN RECEPTOR 2 RELATED DISORDERS OR CONDITIONS” (LumiSTAR Biotechnology, Inc., priority 2023, published 2025)

System: BLM-induced pulmonary fibrosis
Test: Bleomycin-induced lung fibrosis mouse model
Assay type: in vivo
Details: 14 days, Nintedanib 60 mg/kg/day, WRG-28 5 mg/kg/day, Av 5 mg/kg/day
Source text: A Bleomycin (BLM)-induced lung fibrosis mouse model was used, and the timelines of operation and drug delivery are depicted in FIG. 11A. […] The hydroxyproline content, serving as a marker of collagen deposition, was extracted from the right lobe and analyzed; the results are shown in FIG. 11C. FIG. 11D depicts histological analysis derived from the left lobe, quantifying the fibrotic area through staining with Masson's Trichrome and Picrosirius red, respectively.
8-to-10-week-old male WT (C57BL/6) mice received intratracheal instillation of bleomycin (bleocin; Nippon Kayaku) at the dose of 3 mg/kg diluted in PBS or PBS only (sham). To study fibrosis, lung samples were collected on day 21 for further analysis.
Lung function was assessed using the flexi Vent system (Scireq, Montreal, QC, Canada). Mice were tracheostomized and ventilated at a rate of 150 breaths/min, tidal volume of 10 ml/kg, and a positive end-expiratory pressure (PEEP) of 2-3 cmH2O. A deep inflation perturbation was used to estimate the inspiratory capacity (IC). Pressure-Volume loops were generated by constant increasing pressure, followed by regular decreasing pressure. Other lung function parameters like resistance, compliance, and elastance were measured by using SnapShot-150.
Levels of hydroxyproline in lung tissues were measured using the Hydroxyproline Colorimetric Assay kit (BioVision, Milpitas, CA, USA). Briefly, 10 mg of frozen right middle lobes homogenized in 100 μL of hydrochloric acid (HCl, 12 N), and hydrolyzed at 120° C. for 3 h. Then, 10 μL of individual samples were used to quantify the absorbance at 560 nm. Hydroxyproline content was presented in μg per lobe.
Mouse left lungs were fixed overnight in 4% paraformaldehyde (PFA), embedded in paraffin, and sectioned in 5 μm thickness for picrosirius red (Abcam, Cambridge, UK) and Masson's trichrome staining (Sigma Aldrich, MO, USA). Measurement of fibrotic area was quantified using ImageJ software (NIH, http://rsbweb.nih.gov/ij/).
The efficacy of WRG-28 and Av in treating pulmonary fibrosis was examined in vivo using a BLM-induced pulmonary fibrosis mouse model for evaluation. 50 μL of Bleomycin (BLM, 3 mg/kg) or PBS were introduced by intratracheal instillation on day 0 to induce fibrosis or serve as the control group, respectively. This was followed by the administration of various compounds for 14 days (Nintedanib: 60 mg/kg/day, WRG-28:5 mg/kg/day, Av: 5 mg/kg/day). Lung function evaluation was conducted on day 21 (FIG. 11A). Nintedanib, an FDA-approved drug for idiopathic pulmonary fibrosis (IPF) treatment, was used as the positive control. The results of the lung function evaluation are depicted in FIG. 11B. […] The degree of these changes can be reversed through treatment with Nintedanib, WRG-28 or Av. […] Histological analysis was conducted through staining techniques to quantify the fibrotic area.

In the case of `CCNS(=O)(=O)c1ccc(COc2ccc3nc4ccc(=O)cc-4oc3c2)cc1` [WRG-28], the “BLM-induced changes in lung function (capacity, compliance, resistance, elastance)” value (day 21) is reported as “reversed”, the “fibrotic area (Masson's trichrome and Picrosirius Red staining)” value (left lobe) is reported as “effectively reduces” and the “hydroxyproline content (degree of fibrosis)” value (right lobe) is reported as “inhibits the progression of fibrosis”.
